Measurements: US20110092589A1, “Treatment of Inflammatory Conditions and Diseases with Metal-Thiols” (THE CHARLOTTE-MECKLENBURG HOSPOTAL AUTHORITY, priority 2008, published 2011)

Legend:
[1] = test system: Male swiss white mice; assay: Survival in inflammation model of mice (cecum ligated and perforated); assay type: in vivo; conditions: for % Survival 1 dose: tail vein once daily for three days; for % Survival 1 dose / % Survival 2 doses: monitored 8 days; for % Survival 2 doses: tail vein twice daily for three days; for % Survived / Survived/Total: Table 2, treatment i.v. five hours after initiation of inflammation, BisEDT 20 ug/kg
Experimental: (§1) In the following examples, the protective effects of BisEDT was studied in an inflammation model of mice. Male swiss white mice weighing between 30-35 grams were used. The cecum of the mice were ligated and perforated to cause inflammation. BisEDT was prepared in a molar concentration of 1:2 by adding 4.9 pi 10.19 M EDT to 1 ml of 50 mM Bi(NO3)3 in propylene glycol.
A total of sixty mice, 10 in each group, were used in the survival phase of experimentation. Five hours after CLP, BisEDT was administered intravenously in five groups via the tail vein, once a day for three days, at doses of 0.2, 2, 20, 200 and 2000 ug Bi^3+/kg, while the last group received vehicle only. The survival time for each group of mice was recorded to determine an optimal dosage of BisEDT. The study was repeated using limited doses to confirm the results, and to determine if more frequent dosing would increase or prolong survival. This group was injected twice daily with the same doses of BisEDT, with one control group.
(§2) A total of eight groups each containing 10-20 mice in each group were used for the next phase of the study. Five hours after initiation of inflammation, 20 ug/kg BisEDT was administered intravenously with the combination of different biologics indicated in Table 2 with one group that received vehicle only (control). The survival time for each group was recorded. In another eight groups of mice 10 in each group was injected similarly with the same combination of treatment and control and several measures of immune response were assessed such as measurement of pro- and anti-inflammatory cytokines during BisEDT treatment of these mice. […] From 60-70% of mice survived when treated with one or two doses of 20 μg/kg BisEDT (p<0.05), whereas doses 10-fold higher or lower protected only 30-40% of mice (Table 1). […] However, only free TNFα, not total TNFα or free IL-10, correlated strongly with survival (r=−0.92). IL-10 is an anti-inflammatory cytokine and under certain circumstances it can cause immunosuppression. In order to test whether IL-10 plays a role in the model, monoclonal antibodies to IL-10 (that neutralizes IL-10) were used. […] Additionally, IL10 or IL-10+BisEDT provided no protection for the mice. A general damping down of cytokine production was observed, yet it was the reduction in free TNFα that correlated most closely with prevention. BisEDT appears to preserve the normal cellular response to activating stimuli and to protect mice from immune suppression or overwhelming immune reaction.
After inflammation, BisEDT was introduced into the tail vein once or twice daily for three days. Mice were monitored for 8 days to determine survival. *p<0.05, compared to control.

[2] = test system: TNFα; assay: Serum TNFα (total and free) in mouse inflammation model; assay type: in vivo, mice
Experimental: as §1, §2

[3] = test system: IL-10; assay: Serum free IL-10 in mouse inflammation model; assay type: in vivo, mice; conditions: Table 2; treatment i.v. five hours after initiation of inflammation; BisEDT 20 ug/kg
Experimental: as §1
A total of eight groups each containing 10-20 mice in each group were used for the next phase of the study. Five hours after initiation of inflammation, 20 ug/kg BisEDT was administered intravenously with the combination of different biologics indicated in Table 2 with one group that received vehicle only (control). The survival time for each group was recorded. In another eight groups of mice 10 in each group was injected similarly with the same combination of treatment and control and several measures of immune response were assessed such as measurement of pro- and anti-inflammatory cytokines during BisEDT treatment of these mice. […] From 60-70% of mice survived when treated with one or two doses of 20 μg/kg BisEDT (p<0.05), whereas doses 10-fold higher or lower protected only 30-40% of mice (Table 1). […] However, only free TNFα, not total TNFα or free IL-10, correlated strongly with survival (r=−0.92). IL-10 is an anti-inflammatory cytokine and under certain circumstances it can cause immunosuppression. […]

[4] = 20 μg Bi3+/kg BW, *p<0.05 vs control
[5] = Table 2, treatment i.v. five hours after initiation of inflammation, BisEDT 20 ug/kg

Substance: Bismuth-ethanedithiol [BisEDT]
- % Survival 1 dose ([1]; 2 μg Bi3+/kg BW): 40%
- % Survival 2 doses ([1]; 2 μg Bi3+/kg BW): 40%
- % Survival 1 dose [1, 4]: 60* %
- % Survival 2 doses [1, 4]: 70* %
- % Survival 1 dose ([1]; 200 μg Bi3+/kg BW): 40%
- % Survival 2 doses ([1]; 200 μg Bi3+/kg BW): 30%
- % Survived [1]: 60%
- Survived/Total [1]: 6/10
- % of mice protected ([1]; doses 10-fold higher or lower than 20 μg/kg): 30-40%
- % of mice survived ([1]; one or two doses of 20 μg/kg BisEDT (p<0.05)): 60-70%
- changes in cytokine levels (IL1β, TNFα, IL-10, TGFβ), in words ([2]; BisEDT-treated mice, not nearly to the same extent as in the untreated group): significant changes in TNFα only
- sTNFα (free fraction), serum [2, 5]: 100 pg/mL
- tTNFα (total fraction), serum [2, 5]: 330 ng/mL
- sIL-10 (free fraction), serum [3]: 595 pg/mL

Substance: IL-10: IL-10 is an anti-inflammatory cytokine
- % Survived [1]: 0%
- Survived/Total [1]: 0/10
- protection of mice (in words) ([1]; mouse inflammation model): no protection
